Non-standard residues stand in square brackets, D forms with d. Residues, ends and D or L forms follow the SMILES beside them. Dmt = Cc1cc(O)cc(C)c1C[C@H](N)C(=O)O; Orn = NCCC[C@H](N)C(=O)O

Eight compounds from PMC8564633, “SMAC/Diablo controls proliferation of cancer cells by regulating phosphatidylethanolamine synthesis” (Molecular Oncology, 2021) can be followed below.

For one assay, the system named is A549 cells. It is filed as cell-based, human. To be noted: 24 h. Here is the method:
Cells were seeded in 96‐well cell culture plates (8000/well) and allowed to grow for 48 h. After washing with PBS, cells were fixed with 50% trichloroacetic acid and stained with SRB for 20 min. Excess SRB was removed, and cells were washed with 1% acetic acid. SRB extraction was done using 100 mM Tris‐base, and absorbance at 510 nm was determined using an Infinite M1000 plate reader (Tecan, Männedorf, Switzerland).
Fig. 7 PSD‐interacting peptides bind to PSD, inhibiting its activity, and when cell‐penetrating and mitochondria‐ or nucleus‐targeted, inhibit cell proliferation. […] (B) Inhibition of PSD activity by the 2F3 (●) or 1C11 (○) peptide. PSD activity was measured using the DSB‐3 method. (C‐E) Cell proliferation inhibition following incubation of A549 cells with the indicated mitochondria‐ or nucleus‐targeted peptides for 24 h in a serum‐free medium, and cell proliferation was assayed using the SRB method. Results are the means ± SEM (n = 3). (F) A549 cells were incubated for 90 min with 5 µM of the mitochondria‐ or nucleus‐targeted FITC‐labelled peptides, immunostained with anti‐SMAC antibodies and with DAPI and visualized by confocal microscope for subcellular localization. (a) and (b) present higher magnification, white arrows point to possible nuclear localization of the peptide, and blue arrows to its colocalization with mitochondria marker (n = 3). Scale bars represent 20, 10 µm as indicated.
Table S4. Effects of peptide identified as interacting with PSD or their interaction with SMAC/Diablo is prevented in the presence of PSD on A549 lung cancer cell growth A549 cells were seeded in 96-well plate (7000 cells/well). After 24 h cells were incubated without or with the indicated peptide concentration for 24 h in a serum-free medium. Then, cells were washed with PBS, and analyzed for cell growth using the SRB method. Results are the mean ± SD (n=3). Peptide sequence, its identification manner, based on interacting with PSD or their interaction with SMAC/Diablo is prevented in the presence of PSD are shown. In addition, the peptides are presented with the cell penetrating peptide targeting to the mitochondria or the nucleus. The results are presented as the concentration required for 50% inhibition (IC50).
No Peptide spot and Protein/Function Peptide and Cellular IC50 […]
ALSTSSPIPSVPQSQ transcriptional coactivator 2 Mitochondria (A) […]
AQPQTGSGAS truncated poly Q, transcriptional H-(D-Arg)–Dmt–Orn–Phe- 2F3 >100 Interacting with PSD coactivator for NOTCH proteins, Mitochondria promotes proliferative signaling R-{D-Arg}-RK- 2F3 28.9±5.2 during neurogenesis (Nucleus). Nucleus […]
PNQSSRAFQGTDHS transcriptional coactivator 2 Mitochondria
SDLAFDFLSQQ truncated poly Q, A transcriptional D-Arg–Dmt–Orn–Phe-2I8 66.8±4.7 Identified by PSD coactivator for NOTCH proteins, Mitochondria preventing SMAC promotes proliferative signaling R-{D-Arg}-RK-2I8 >100 interaction with it during neurogenesis (Nucleus). Nucleus […]
ALLTSGTSDPRARV protease promotes cell death either Mitochondria […]
TYGTPSLWARL by direct binding to IAPs proteins D-Arg–Dmt–Orn–Phe -1C11 89.3±5.49 Interacting with PSD leading to increased caspase Mitochondria activity or caspase-independent and serine protease activity-dependent R-{D-Arg}-RK- 1C11 66.5±3.9 mechanism. (Mitochondrion Nucleus intermembrane space). 1C11- R-{D-Arg}-RK 30.0±3.8 […]
ELYRMSTYSTFPAG Acts as an E3 ubiquitin-protein Mitochondria
VPVSERSLARA ligase, regulator of NF-kappa-B 1E14- D-Arg–Dmt–Orn–Phe >100 Identified by PSD signaling, apoptosis, cell Mitochondria preventing SMAC proliferation, cell invasion and R-{D-Arg}-RK-1E14 >100 interaction with it metastasis, modulates inflammatory Nucleus signaling, (Cytosol, nucleus and […]
`Cc1cc(O)cc(C)c1C[C@H](NC(=O)[C@@H](CCCNC(=N)N)NC(=O)[C@H](CC(C)C)NC(=O)[C@H](CCCNC(=N)N)NC(=O)[C@H](C)NC(=O)[C@H](Cc1c[nH]c2ccccc12)NC(=O)[C@H](CC(C)C)NC(=O)[C@H](CO)NC(=O)[C@@H]1CCCN1C(=O)[C@@H](NC(=O)CNC(=O)[C@H](Cc1ccc(O)cc1)NC(=O)[C@@H](NC(=O)[C@@H](NC(=O)[C@H](CCCNC(=N)N)NC(=O)[C@H](C)NC(=O)[C@H](CCCNC(=N)N)NC(=O)[C@@H]1CCCN1C(=O)[C@H](CC(=O)O)NC(=O)[C@H](CO)NC(=O)[C@@H](NC(=O)CNC(=O)[C@H](CO)NC(=O)[C@@H](NC(=O)[C@H](CC(C)C)NC(=O)[C@H](CC(C)C)NC(=O)[C@H](C)N)[C@@H](C)O)[C@@H](C)O)C(C)C)[C@@H](C)O)[C@@H](C)O)C(=O)N[C@@H](CCCN)C(=O)N[C@@H](Cc1ccccc1)C(N)=O` [1C11-D-Arg–Dmt–Orn–Phe] (H-ALLTSGTSDPRARVTYGTPSLWARL[dR][Dmt][Orn]F-NH2; N-terminus and C-terminus assumed): the IC50 amounted to 30.3 ± 5.5 µM. On to `CC(C)C[C@H](NC(=O)[C@H](C)N)C(=O)N[C@@H](CC(C)C)C(=O)N[C@H](C(=O)N[C@@H](CO)C(=O)NCC(=O)N[C@H](C(=O)N[C@@H](CO)C(=O)N[C@@H](CC(=O)O)C(=O)N1CCC[C@H]1C(=O)N[C@@H](CCCNC(=N)N)C(=O)N[C@@H](C)C(=O)N[C@@H](CCCNC(=N)N)C(=O)N[C@H](C(=O)N[C@H](C(=O)N[C@@H](Cc1ccc(O)cc1)C(=O)NCC(=O)N[C@H](C(=O)N1CCC[C@H]1C(=O)N[C@@H](CO)C(=O)N[C@@H](CC(C)C)C(=O)N[C@@H](Cc1c[nH]c2ccccc12)C(=O)N[C@@H](C)C(=O)N[C@@H](CCCNC(=N)N)C(=O)N[C@@H](CC(C)C)C(=O)N[C@@H](CCCNC(=N)N)C(=O)N[C@H](CCCNC(=N)N)C(=O)N[C@@H](CCCNC(=N)N)C(=O)N[C@@H](CCCCN)C(=O)O)[C@@H](C)O)[C@@H](C)O)C(C)C)[C@@H](C)O)[C@@H](C)O` [1C11-R-{D-Arg}-RK] (H-ALLTSGTSDPRARVTYGTPSLWARLR[dR]RK-OH; N-terminus and C-terminus assumed), for which the IC50 was found to be 30 µM. `CSCC[C@H](NC(=O)[C@H](CCCNC(=N)N)NC(=O)[C@H](Cc1ccc(O)cc1)NC(=O)[C@H](CC(C)C)NC(=O)[C@@H](N)CCC(=O)O)C(=O)N[C@@H](CO)C(=O)N[C@H](C(=O)N[C@@H](Cc1ccc(O)cc1)C(=O)N[C@@H](CO)C(=O)N[C@H](C(=O)N[C@@H](Cc1ccccc1)C(=O)N1CCC[C@H]1C(=O)N[C@@H](C)C(=O)NCC(=O)N[C@H](C(=O)N1CCC[C@H]1C(=O)N[C@H](C(=O)N[C@@H](CO)C(=O)N[C@@H](CCC(=O)O)C(=O)N[C@@H](CCCNC(=N)N)C(=O)N[C@@H](CO)C(=O)N[C@@H](CC(C)C)C(=O)N[C@@H](C)C(=O)N[C@@H](CCCNC(=N)N)C(=O)N[C@@H](C)C(=O)N[C@H](CCCNC(=N)N)C(=O)N[C@@H](Cc1c(C)cc(O)cc1C)C(=O)N[C@@H](CCCN)C(=O)N[C@@H](Cc1ccccc1)C(N)=O)C(C)C)C(C)C)[C@@H](C)O)[C@@H](C)O` [1E14-D-Arg–Dmt–Orn–Phe] (H-ELYRMSTYSTFPAGVPVSERSLARA[dR][Dmt][Orn]F-NH2; N-terminus and C-terminus assumed) showed an IC50 above 100 µM. Compound `CC[C@H](C)[C@H](NC(=O)[C@@H]1CCCN1C(=O)[C@H](CO)NC(=O)[C@H](CO)NC(=O)[C@@H](NC(=O)[C@H](CO)NC(=O)[C@H](CC(C)C)NC(=O)[C@H](C)N)[C@@H](C)O)C(=O)N1CCC[C@H]1C(=O)N[C@@H](CO)C(=O)N[C@H](C(=O)N1CCC[C@H]1C(=O)N[C@@H](CCC(N)=O)C(=O)N[C@@H](CO)C(=O)N[C@@H](CCC(N)=O)C(=O)N[C@@H](C)C(=O)N[C@@H](CCC(N)=O)C(=O)N1CCC[C@H]1C(=O)N[C@@H](CCC(N)=O)C(=O)N[C@H](C(=O)NCC(=O)N[C@@H](CO)C(=O)NCC(=O)N[C@@H](C)C(=O)N[C@@H](CO)C(=O)N[C@@H](CCCNC(=N)N)C(=O)N[C@H](CCCNC(=N)N)C(=O)N[C@@H](CCCNC(=N)N)C(=O)N[C@@H](CCCCN)C(=O)O)[C@@H](C)O)C(C)C` [2F3-R-{D-Arg}-RK] (H-ALSTSSPIPSVPQSQAQPQTGSGASR[dR]RK-OH; N-terminus and C-terminus assumed) displayed an IC50 of 29.6 ± 0.6 µM. Turning to `Cc1cc(O)cc(C)c1C[C@H](NC(=O)[C@@H](CCCNC(=N)N)NC(=O)[C@H](CCC(N)=O)NC(=O)[C@H](CCC(N)=O)NC(=O)[C@H](CO)NC(=O)[C@H](CC(C)C)NC(=O)[C@H](Cc1ccccc1)NC(=O)[C@H](CC(=O)O)NC(=O)[C@H](Cc1ccccc1)NC(=O)[C@H](C)NC(=O)[C@H](CC(C)C)NC(=O)[C@H](CC(=O)O)NC(=O)[C@H](CO)NC(=O)[C@H](CO)NC(=O)[C@H](Cc1c[nH]cn1)NC(=O)[C@H](CC(=O)O)NC(=O)[C@@H](NC(=O)CNC(=O)[C@H](CCC(N)=O)NC(=O)[C@H](Cc1ccccc1)NC(=O)[C@H](C)NC(=O)[C@H](CCCNC(=N)N)NC(=O)[C@H](CO)NC(=O)[C@H](CO)NC(=O)[C@H](CCC(N)=O)NC(=O)[C@H](CC(N)=O)NC(=O)[C@@H]1CCCN1)[C@@H](C)O)C(=O)N[C@@H](CCCN)C(=O)N[C@@H](Cc1ccccc1)C(N)=O` [2I8- (D-Arg)-Dmt-Orn-Phe-NH2] (H-PNQSSRAFQGTDHSSDLAFDFLSQQ[dR][Dmt][Orn]F-NH2; N-terminus assumed), the IC50 came out at 30.2 ± 3.6 µM. `CC(C)C[C@H](NC(=O)[C@H](CC(=O)O)NC(=O)[C@H](CO)NC(=O)[C@H](CO)NC(=O)[C@H](Cc1c[nH]cn1)NC(=O)[C@H](CC(=O)O)NC(=O)[C@@H](NC(=O)CNC(=O)[C@H](CCC(N)=O)NC(=O)[C@H](Cc1ccccc1)NC(=O)[C@H](C)NC(=O)[C@H](CCCNC(=N)N)NC(=O)[C@H](CO)NC(=O)[C@H](CO)NC(=O)[C@H](CCC(N)=O)NC(=O)[C@H](CC(N)=O)NC(=O)[C@@H]1CCCN1)[C@@H](C)O)C(=O)N[C@@H](C)C(=O)N[C@@H](Cc1ccccc1)C(=O)N[C@@H](CC(=O)O)C(=O)N[C@@H](Cc1ccccc1)C(=O)N[C@@H](CC(C)C)C(=O)N[C@@H](CO)C(=O)N[C@@H](CCC(N)=O)C(=O)N[C@@H](CCC(N)=O)C(=O)N[C@@H](CCCNC(=N)N)C(=O)N[C@H](CCCNC(=N)N)C(=O)N[C@@H](CCCNC(=N)N)C(=O)N[C@@H](CCCCN)C(=O)O` [2I8-R-{D-Arg}-RK] (H-PNQSSRAFQGTDHSSDLAFDFLSQQR[dR]RK-OH; N-terminus and C-terminus assumed): the IC50 was 19.7 µM. `Cc1cc(O)cc(C)c1C[C@H](NC(=O)[C@H](N)CCCNC(=N)N)C(=O)N[C@@H](CCCN)C(=O)N[C@@H](Cc1ccccc1)C(=O)N[C@@H](C)C(=O)N[C@@H](CC(C)C)C(=O)N[C@@H](CC(C)C)C(=O)N[C@H](C(=O)N[C@@H](CO)C(=O)NCC(=O)N[C@H](C(=O)N[C@@H](CO)C(=O)N[C@@H](CC(=O)O)C(=O)N1CCC[C@H]1C(=O)N[C@@H](CCCNC(=N)N)C(=O)N[C@@H](C)C(=O)N[C@@H](CCCNC(=N)N)C(=O)N[C@H](C(=O)N[C@H](C(=O)N[C@@H](Cc1ccc(O)cc1)C(=O)NCC(=O)N[C@H](C(=O)N1CCC[C@H]1C(=O)N[C@@H](CO)C(=O)N[C@@H](CC(C)C)C(=O)N[C@@H](Cc1c[nH]c2ccccc12)C(=O)N[C@@H](C)C(=O)N[C@@H](CCCNC(=N)N)C(=O)N[C@@H](CC(C)C)C(=O)O)[C@@H](C)O)[C@@H](C)O)C(C)C)[C@@H](C)O)[C@@H](C)O` [D-Arg–Dmt–Orn–Phe -1C11] (H-[dR][Dmt][Orn]FALLTSGTSDPRARVTYGTPSLWARL-OH; N-terminus and C-terminus assumed) came in with an IC50 of 89.3 ± 5.49 µM.

The same assay, now with this note: A549 cells, 24 h, serum‐free medium, SRB; read-out: IC50, cell proliferation inhibition.
Regarding 2F3 -D-Arg–Dmt–Orn–Phe, the IC50 was found to be 19.6 µM.

`CC[C@H](C)[C@H](NC(=O)[C@@H]1CCCN1C(=O)[C@H](CO)NC(=O)[C@H](CO)NC(=O)[C@@H](NC(=O)[C@H](CO)NC(=O)[C@H](CC(C)C)NC(=O)[C@H](C)N)[C@@H](C)O)C(=O)N1CCC[C@H]1C(=O)N[C@@H](CO)C(=O)N[C@H](C(=O)N1CCC[C@H]1C(=O)N[C@@H](CCC(N)=O)C(=O)N[C@@H](CO)C(=O)N[C@@H](CCC(N)=O)C(=O)N[C@@H](C)C(=O)N[C@@H](CCC(N)=O)C(=O)N1CCC[C@H]1C(=O)N[C@@H](CCC(N)=O)C(=O)N[C@H](C(=O)NCC(=O)N[C@@H](CO)C(=O)NCC(=O)N[C@@H](C)C(=O)N[C@@H](CO)C(=O)N[C@@H](CCCNC(=N)N)C(=O)N[C@H](CCCNC(=N)N)C(=O)N[C@@H](CCCNC(=N)N)C(=O)N[C@@H](CCCCN)C(=O)O)[C@@H](C)O)C(C)C` [2F3-R-{D-Arg}-RK] (H-ALSTSSPIPSVPQSQAQPQTGSGASR[dR]RK-OH; N-terminus and C-terminus assumed): the IC50 was determined as 19.6 µM.
